Several values for one entry are separate records, joined by “and”; a condition that tells them apart may be missing. Identical values can stand only once. Toxic doses and inconclusive results are not listed.
Tested on: CD2F1 mice, L1210 leukemia ip, survival T/C
Experiment: NCI In Vivo Anticancer Drug Screen. Data for tumor model L1210 Leukemia (intraperitoneal) in CD2F1 (CDF1) mice
Conditions: higher = longer survival
Outline: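 Ratio T/C, where T is the treated-group value and C the vehicle-dosed control value, from mice implanted with a transplantable tumor.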

[1] = endpoint: mean survival time, dose: 100.0 mg/kg/injection, schedule: Q04DX003 (ip), vehicle: saline
[2] = endpoint: mean survival time, dose: 200.0 mg/kg/injection, schedule: Q04DX003 (ip), vehicle: saline
[3] = endpoint: mean survival time, dose: 12.5 mg/kg/injection, schedule: Q01DX009 (ip), vehicle: saline with Tween-80
[4] = endpoint: mean survival time, dose: 25.0 mg/kg/injection, schedule: Q01DX009 (ip), vehicle: saline with Tween-80
[5] = endpoint: mean survival time, dose: 50.0 mg/kg/injection, schedule: Q01DX009 (ip), vehicle: saline
[6] = endpoint: mean survival time, dose: 100.0 mg/kg/injection, schedule: Q01DX009 (ip), vehicle: saline with Tween-80
[7] = endpoint: mean survival time, dose: 100.0 mg/kg/injection, schedule: Q01DX009 (ip), vehicle: saline
[8] = endpoint: mean survival time, dose: 200.0 mg/kg/injection, schedule: Q01DX009 (ip), vehicle: saline with Tween-80
[9] = endpoint: mean survival time, dose: 200.0 mg/kg/injection, schedule: Q01DX009 (ip), vehicle: saline
[10] = endpoint: mean survival time, dose: 400.0 mg/kg/injection, schedule: Q01DX009 (ip), vehicle: saline
[11] = endpoint: mean survival time, dose: 100.0 mg/kg/injection, schedule: Q04DX003 (ip), vehicle: saline with Tween-80
[12] = endpoint: mean survival time, dose: 100.0 mg/kg/injection, schedule: Q01DX001 (ip), vehicle: saline with Tween-80
[13] = endpoint: mean survival time, dose: 200.0 mg/kg/injection, schedule: Q01DX001 (ip), vehicle: saline with Tween-80
[14] = endpoint: mean survival time, dose: 200.0 mg/kg/injection, schedule: Q04DX003 (ip), vehicle: saline with Tween-80
[15] = endpoint: mean survival time, dose: 400.0 mg/kg/injection, schedule: Q04DX003 (ip), vehicle: saline with Tween-80
[16] = endpoint: mean survival time, dose: 400.0 mg/kg/injection, schedule: Q01DX009 (ip), vehicle: saline with Tween-80

SMILES: CN1CCN(CCCN2CC3CC=CCC3C2)CC1 (centres undefined)
- T/C [1]: 105 % of control
- T/C [2]: 100 % of control

SMILES: NC(=O)c1ncn(C2OCC(O)C(O)C2O)c1N (centres undefined)
- T/C (endpoint: mean survival time, dose: 12.5 mg/kg/injection, schedule: Q01DX005 (ip), vehicle: water): 87 % of control and 95 % of control
- T/C (endpoint: mean survival time, dose: 25.0 mg/kg/injection, schedule: Q01DX005 (ip), vehicle: water): 90 % of control and 93 % of control
- T/C (endpoint: mean survival time, dose: 50.0 mg/kg/injection, schedule: Q01DX005 (ip), vehicle: water): 92 % of control
- T/C (endpoint: mean survival time, dose: 100.0 mg/kg/injection, schedule: Q01DX005 (ip), vehicle: water): 98 % of control
- T/C (endpoint: mean survival time, dose: 200.0 mg/kg/injection, schedule: Q01DX005 (ip), vehicle: water): 98 % of control and 95 % of control
- T/C (endpoint: median survival time, dose: 12.5 mg/kg/injection, schedule: Q01DX005 (ip), vehicle: water): 96 % of control
- T/C (endpoint: median survival time, dose: 25.0 mg/kg/injection, schedule: Q01DX005 (ip), vehicle: water): 106 % of control
- T/C (endpoint: median survival time, dose: 50.0 mg/kg/injection, schedule: Q01DX005 (ip), vehicle: water): 102 % of control
- T/C (endpoint: median survival time, dose: 100.0 mg/kg/injection, schedule: Q01DX005 (ip), vehicle: water): 98 % of control
- T/C (endpoint: median survival time, dose: 200.0 mg/kg/injection, schedule: Q01DX005 (ip), vehicle: water): 108 % of control

SMILES: NCCCNCCSP(=O)(O)O
- T/C [3]: 106 % of control
- T/C (endpoint: mean survival time, dose: 12.5 mg/kg/injection, schedule: Q01DX009 (ip), vehicle: saline): 95 % of control
- T/C [4]: 101 % of control
- T/C (endpoint: mean survival time, dose: 25.0 mg/kg/injection, schedule: Q01DX009 (ip), vehicle: saline): 106 % of control
- T/C (endpoint: mean survival time, dose: 50.0 mg/kg/injection, schedule: Q01DX009 (ip), vehicle: saline with Tween-80): 102 % of control
- T/C [5]: 101 % of control
- T/C [6]: 101 % of control
- T/C [7]: 96 % of control
- T/C [8]: 104 % of control
- T/C [9]: 106 % of control
- T/C [10]: 93 % of control

SMILES: CCCCC(C(=O)OCC)C(=O)c1ccccc1 (centres undefined) (tested in a mixture with another compound)
- T/C [11]: 100 % of control

SMILES: COC(=O)C(NC(=O)C(CSC(c1ccccc1)(c1ccccc1)c1ccccc1)NC(c1ccccc1)(c1ccccc1)c1ccccc1)C(C)C (centres undefined)
- T/C [5]: 98 % of control
- T/C [7]: 92 % of control
- T/C [9]: 97 % of control
- T/C [10]: 89 % of control

SMILES: Nc1nc2c(ncn2CCCc2ccccc2)c(=O)[nH]1
- T/C [12]: 94 % of control
- T/C [13]: 94 % of control

SMILES: N#CC(C(=O)O)C1CCCCC1=O (centres undefined)
- T/C (endpoint: median survival time, dose: 50.0 mg/kg/injection, schedule: Q04DX002 (ip), vehicle: saline with Tween-80): 100 % of control
- T/C (endpoint: median survival time, dose: 100.0 mg/kg/injection, schedule: Q04DX002 (ip), vehicle: saline with Tween-80): 100 % of control
- T/C (endpoint: median survival time, dose: 200.0 mg/kg/injection, schedule: Q04DX002 (ip), vehicle: saline with Tween-80): 100 % of control

SMILES: Nc1ncc2ccccc2c1-c1ccc(NC(=O)CCCl)cc1
- T/C (endpoint: mean survival time, dose: 25.0 mg/kg/injection, schedule: Q04DX003 (ip), vehicle: DMSO): 98 % of control
- T/C (endpoint: mean survival time, dose: 50.0 mg/kg/injection, schedule: Q04DX003 (ip), vehicle: DMSO): 102 % of control
- T/C (endpoint: mean survival time, dose: 100.0 mg/kg/injection, schedule: Q04DX003 (ip), vehicle: DMSO): 95 % of control
- T/C (endpoint: mean survival time, dose: 200.0 mg/kg/injection, schedule: Q04DX003 (ip), vehicle: DMSO): 102 % of control
- T/C (endpoint: mean survival time, dose: 400.0 mg/kg/injection, schedule: Q04DX003 (ip), vehicle: DMSO): 90 % of control

SMILES: O=C(/C=N/O)Nc1ccccc1
- T/C [11]: 101 % of control
- T/C [14]: 100 % of control
- T/C [15]: 95 % of control

SMILES: CCCCCCCCCCCCCCCCCOc1c(I)cc(I)cc1I
- T/C [12]: 86 % of control
- T/C [13]: 94 % of control
- T/C (endpoint: mean survival time, dose: 400.0 mg/kg/injection, schedule: Q01DX001 (ip), vehicle: saline with Tween-80): 91 % of control

SMILES: Nc1nc2nc3c(nc2c(=O)[nH]1)CN(c1ccc(C(=O)O)cc1)C3=O
- T/C [11]: 95 % of control
- T/C [14]: 97 % of control

SMILES: CN(C)CCCNC1=C(Cl)C(=O)C(NCCCN(C)C)=C(Cl)C1=O
- T/C (endpoint: median survival time, dose: 6.25 mg/kg/injection, schedule: Q01DX009 (ip), vehicle: Klucel (hydroxypropylcellulose) (HPC)): 97 % of control
- T/C (endpoint: median survival time, dose: 12.5 mg/kg/injection, schedule: Q01DX009 (ip), vehicle: Klucel (hydroxypropylcellulose) (HPC)): 94 % of control
- T/C (endpoint: median survival time, dose: 25.0 mg/kg/injection, schedule: Q01DX009 (ip), vehicle: Klucel (hydroxypropylcellulose) (HPC)): 96 % of control
- T/C (endpoint: median survival time, dose: 50.0 mg/kg/injection, schedule: Q01DX009 (ip), vehicle: Klucel (hydroxypropylcellulose) (HPC)): 97 % of control

SMILES: CNC(=O)c1cccc2c(Nc3ccc(NS(C)(=O)=O)cc3OC)c3cccc(C)c3nc12
- T/C (endpoint: median survival time, dose: 3.0 mg/kg/injection, schedule: Q01DX009 (ip), vehicle: water): 181 % of control
- T/C (endpoint: median survival time, dose: 6.25 mg/kg/injection, schedule: Q01DX009 (ip), vehicle: water): 195 % of control
- T/C (endpoint: median survival time, dose: 12.0 mg/kg/injection, schedule: Q01DX009 (ip), vehicle: water): 98 % of control
- T/C (endpoint: median survival time, dose: 12.5 mg/kg/injection, schedule: Q01DX005 (oral), vehicle: water): 160 % of control
- T/C (endpoint: median survival time, dose: 12.5 mg/kg/injection, schedule: Q01DX009 (ip), vehicle: water): 102 % of control
- T/C (endpoint: median survival time, dose: 25.0 mg/kg/injection, schedule: Q01DX005 (oral), vehicle: water): 102 % of control
- T/C (endpoint: median survival time, dose: 25.0 mg/kg/injection, schedule: Q01DX009 (ip), vehicle: water): 87 % of control

SMILES: Nc1nc(OCc2ccccc2)ncc1C(=O)NC(CO)C(=O)O (centres undefined)
- T/C (endpoint: mean survival time, dose: 6.25 mg/kg/injection, schedule: Q01DX009 (ip), vehicle: saline with Tween-80): 100 % of control
- T/C [3]: 98 % of control
- T/C [4]: 102 % of control

SMILES: O=[P+](O)O[P+](=O)O.O=[P+](O)O[P+](=O)O.O=[P+](O)O[P+](=O)O.O=[P+](O)O[P+](=O)O.[Pt].[Pt]
- T/C (endpoint: median survival time, dose: 3.12 mg/kg/injection, schedule: Q04DX003 (ip), vehicle: saline): 98 % of control
- T/C (endpoint: median survival time, dose: 6.25 mg/kg/injection, schedule: Q04DX003 (ip), vehicle: saline): 98 % of control
- T/C (endpoint: median survival time, dose: 12.5 mg/kg/injection, schedule: Q04DX003 (ip), vehicle: saline): 96 % of control
- T/C (endpoint: median survival time, dose: 25.0 mg/kg/injection, schedule: Q04DX003 (ip), vehicle: saline): 98 % of control
- T/C (endpoint: median survival time, dose: 50.0 mg/kg/injection, schedule: Q04DX003 (ip), vehicle: saline): 105 % of control

SMILES: O=[N+]([O-])c1cc(S(=O)(=O)O)cc(S(=O)(=O)O)c1O
- T/C (endpoint: mean survival time, dose: 100.0 mg/kg/injection, schedule: Q04DX002 (ip), vehicle: saline): 100 % of control
- T/C (endpoint: mean survival time, dose: 200.0 mg/kg/injection, schedule: Q04DX002 (ip), vehicle: saline): 107 % of control
- T/C (endpoint: mean survival time, dose: 400.0 mg/kg/injection, schedule: Q04DX002 (ip), vehicle: saline): 103 % of control

SMILES: OC(c1ccccc1)c1ccc2c(c1)CCC2 (centres undefined)
- T/C [11]: 102 % of control
- T/C [14]: 98 % of control
- T/C [15]: 94 % of control

SMILES: OCc1ccc(Cl)c(Cl)c1
- T/C [11]: 97 % of control
- T/C [14]: 102 % of control
- T/C [15]: 96 % of control

SMILES: CCOC(=O)Nc1ccc(F)cc1F
- T/C [6]: 94 % of control
- T/C [8]: 94 % of control
- T/C [16]: 100 % of control

SMILES: O=C(O)/C(=C\c1ccccc1)c1ccccc1
- T/C [6]: 90 % of control
- T/C [8]: 101 % of control
- T/C [16]: 95 % of control

SMILES: CC(=O)OC1C(OC(C)=O)C2C(C)(C)CCCC2(C)C2Cc3occc3C(C)C12 (centres undefined)
- T/C (endpoint: mean survival time, dose: 50.0 mg/kg/injection, schedule: Q04DX003 (ip), vehicle: saline with Tween-80): 96 % of control
- T/C (endpoint: mean survival time, dose: 50.0 mg/kg/injection, schedule: Q04DX003 (ip), vehicle: saline): 102 % of control
- T/C [11]: 98 % of control
- T/C [1]: 98 % of control
- T/C [14]: 96 % of control
- T/C [2]: 96 % of control
- T/C [15]: 91 % of control
- T/C (endpoint: mean survival time, dose: 400.0 mg/kg/injection, schedule: Q04DX003 (ip), vehicle: saline): 96 % of control

SMILES: CC(C)/C=N\O
- T/C (endpoint: mean survival time, dose: 50.0 mg/kg/injection, schedule: Q01DX001 (ip), vehicle: saline): 107 % of control
- T/C (endpoint: mean survival time, dose: 100.0 mg/kg/injection, schedule: Q01DX001 (ip), vehicle: saline): 110 % of control
- T/C (endpoint: mean survival time, dose: 200.0 mg/kg/injection, schedule: Q01DX001 (ip), vehicle: saline): 107 % of control

SMILES: C=CCS(=O)[O-].[C-]#[O+].[C-]#[O+].[Fe+6].[c-]1[c-][c-][cH-][c-]1
- T/C (endpoint: mean survival time, dose: 12.5 mg/kg/injection, schedule: Q04DX002 (ip), vehicle: saline): 97 % of control
- T/C (endpoint: mean survival time, dose: 25.0 mg/kg/injection, schedule: Q04DX002 (ip), vehicle: saline): 102 % of control
- T/C (endpoint: mean survival time, dose: 50.0 mg/kg/injection, schedule: Q04DX002 (ip), vehicle: saline): 100 % of control
